Data: ChEMBL document CHEMBL4804286, “3-amino-4-(4-(4 (dimethylcarbamoyl) phenyl)-1,4-diazepan-1-yl) thieno [2,3-b] pyridine-2-carboxamide for use in cancer therapy and formulations comprising the same” (2020)
Values joined by “and” are separate entries in the source; they are usually repeats but may differ in a detail not shown here. Identical values can stand only once. Active and inactive are the calls of the source. The calls are words filed in the database; no cut-off is given here.

Columns and labels:
[1] = target: Interleukin-1 receptor-associated kinase 1 (Homo sapiens) (UniProt P51617); test: Inhibition of human IRAK1 assessed as percent of control at 2000 nM by KINOMEscan assay relative to control; parameters: scale not given: the % may be the effect or the level left
Sequence of Interleukin-1 receptor-associated kinase 1 (Homo sapiens) (P51617 whole entry, looked up): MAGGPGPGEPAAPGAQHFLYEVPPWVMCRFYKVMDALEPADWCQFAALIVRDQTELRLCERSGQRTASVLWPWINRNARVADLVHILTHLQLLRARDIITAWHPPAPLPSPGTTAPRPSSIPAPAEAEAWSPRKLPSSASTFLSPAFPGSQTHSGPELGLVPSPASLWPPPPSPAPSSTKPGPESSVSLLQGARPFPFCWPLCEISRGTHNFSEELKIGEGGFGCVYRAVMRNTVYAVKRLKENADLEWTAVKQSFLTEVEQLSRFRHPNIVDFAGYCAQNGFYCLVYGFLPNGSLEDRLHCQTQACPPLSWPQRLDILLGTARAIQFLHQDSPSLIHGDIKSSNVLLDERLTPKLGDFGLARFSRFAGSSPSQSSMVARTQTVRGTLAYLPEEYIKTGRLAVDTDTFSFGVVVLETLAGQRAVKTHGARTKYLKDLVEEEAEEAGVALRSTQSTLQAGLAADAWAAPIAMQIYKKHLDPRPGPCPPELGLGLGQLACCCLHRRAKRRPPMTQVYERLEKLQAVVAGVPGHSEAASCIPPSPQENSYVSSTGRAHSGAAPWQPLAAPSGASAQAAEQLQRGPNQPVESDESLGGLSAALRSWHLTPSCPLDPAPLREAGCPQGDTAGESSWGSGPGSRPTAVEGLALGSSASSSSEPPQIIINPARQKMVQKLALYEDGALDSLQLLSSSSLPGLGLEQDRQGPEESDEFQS

[2] = test system: Tyrosine-protein kinase ABL1 (Homo sapiens), P00519 [F317I]; test: Inhibition of non-phosphorylated human ABL1 F317I mutant assessed as percent of control at 2000 nM by KINOMEscan assay relative to control; parameters: scale not given: the % may be the effect or the level left
[3] = target: Serine/threonine-protein kinase LATS1 (Homo sapiens) (UniProt O95835); test: Inhibition of human LATS1 assessed as percent of control at 2000 nM by KINOMEscan assay relative to control; parameters: scale not given: the % may be the effect or the level left
[4] = target: NUAK family SNF1-like kinase 1 (Homo sapiens) (UniProt O60285); test: Inhibition of human ARK5 assessed as percent of control at 2000 nM by KINOMEscan assay relative to control; parameters: scale not given: the % may be the effect or the level left
[5] = target: Dual specificity mitogen-activated protein kinase kinase 5 (Homo sapiens) (UniProt Q13163); test: Inhibition of human MEK5 assessed as percent of control at 2000 nM by KINOMEscan assay relative to control; parameters: scale not given: the % may be the effect or the level left
[6] = target: Rhodopsin kinase GRK1 (Homo sapiens) (UniProt Q15835); test: Inhibition of human GRK1 assessed as percent of control at 2000 nM by KINOMEscan assay relative to control; parameters: scale not given: the % may be the effect or the level left
[7] = target: Ephrin type-A receptor 6 (Homo sapiens) (UniProt Q9UF33); test: Inhibition of human EPHA6 assessed as percent of control at 2000 nM by KINOMEscan assay relative to control; parameters: scale not given: the % may be the effect or the level left
[8] = target: Mitogen-activated protein kinase 12 (Homo sapiens) (UniProt P53778); test: Inhibition of human p38-gamma assessed as percent of control at 2000 nM by KINOMEscan assay relative to control; parameters: scale not given: the % may be the effect or the level left
[9] = target: Serine/threonine-protein kinase 35 (Homo sapiens) (UniProt Q8TDR2); test: Inhibition of human STK35 assessed as percent of control at 2000 nM by KINOMEscan assay relative to control; parameters: scale not given: the % may be the effect or the level left
[10] = target: Cyclin-dependent kinase 3 (Homo sapiens) (UniProt Q00526); test: Inhibition of human CDK3 assessed as percent of control at 2000 nM by KINOMEscan assay relative to control; parameters: scale not given: the % may be the effect or the level left
[11] = target: Cyclin-dependent kinase 11A (Homo sapiens) (UniProt Q9UQ88); test: Inhibition of human CDC2L2 assessed as percent of control at 2000 nM by KINOMEscan assay relative to control; parameters: scale not given: the % may be the effect or the level left
[12] = target: Phosphorylase b kinase gamma catalytic chain, skeletal muscle/heart isoform (Homo sapiens) (UniProt Q16816); test: Inhibition of human PHKG1 assessed as percent of control at 2000 nM by KINOMEscan assay relative to control; parameters: scale not given: the % may be the effect or the level left
[13] = target: Serine/threonine-protein kinase PknB (Mycobacterium tuberculosis) (UniProt P9WI81); test: Inhibition of Mycobacterium tuberculosis PKNB assessed as percent of control at 2000 nM by KINOMEscan assay relative to control; parameters: scale not given: the % may be the effect or the level left
[14] = test system: Phosphatidylinositol 4,5-bisphosphate 3-kinase catalytic subunit alpha isoform (Homo sapiens), P42336 [E542K]; test: Inhibition of human PIK3CA E542K mutant assessed as percent of control at 2000 nM by KINOMEscan assay relative to control; parameters: scale not given: the % may be the effect or the level left
[15] = target: TGF-beta receptor type-1 (Homo sapiens) (UniProt P36897); test: Inhibition of human TGFBR1 assessed as percent of control at 2000 nM by KINOMEscan assay relative to control; parameters: scale not given: the % may be the effect or the level left
[16] = target: Receptor-type tyrosine-protein kinase FLT3 (Homo sapiens) (UniProt P36888); test: Inhibition of human FLT3 assessed as percent of control at 2000 nM by KINOMEscan assay relative to control; parameters: scale not given: the % may be the effect or the level left
[17] = target: G protein-coupled receptor kinase 3 (Homo sapiens) (UniProt P35626); test: Inhibition of human GRK3 assessed as percent of control at 2000 nM by KINOMEscan assay relative to control; parameters: scale not given: the % may be the effect or the level left
Sequence of G protein-coupled receptor kinase 3 (Homo sapiens) (P35626 whole entry): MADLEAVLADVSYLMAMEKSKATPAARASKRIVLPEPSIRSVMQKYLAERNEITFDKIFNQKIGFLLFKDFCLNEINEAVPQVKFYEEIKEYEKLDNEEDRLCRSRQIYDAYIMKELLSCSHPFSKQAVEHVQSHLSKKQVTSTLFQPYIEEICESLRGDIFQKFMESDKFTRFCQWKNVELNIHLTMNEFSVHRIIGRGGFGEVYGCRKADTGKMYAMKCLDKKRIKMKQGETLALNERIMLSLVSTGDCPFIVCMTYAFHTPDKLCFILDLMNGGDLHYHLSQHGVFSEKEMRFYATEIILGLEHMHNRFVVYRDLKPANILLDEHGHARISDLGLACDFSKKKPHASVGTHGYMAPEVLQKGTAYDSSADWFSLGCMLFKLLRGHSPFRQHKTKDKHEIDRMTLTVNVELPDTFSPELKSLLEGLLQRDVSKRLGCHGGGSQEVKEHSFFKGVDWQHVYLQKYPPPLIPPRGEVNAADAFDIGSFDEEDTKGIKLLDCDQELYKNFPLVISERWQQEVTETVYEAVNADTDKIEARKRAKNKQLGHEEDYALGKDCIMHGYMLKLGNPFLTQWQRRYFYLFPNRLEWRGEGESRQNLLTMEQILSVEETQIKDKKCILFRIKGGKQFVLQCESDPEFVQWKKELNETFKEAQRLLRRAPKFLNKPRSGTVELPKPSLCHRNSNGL

[18] = target: Tyrosine-protein kinase BTK (Homo sapiens) (UniProt Q06187); test: Inhibition of human BTK assessed as percent of control at 2000 nM by KINOMEscan assay relative to control; parameters: scale not given: the % may be the effect or the level left
[19] = target: Tyrosine-protein kinase Mer (Homo sapiens) (UniProt Q12866); test: Inhibition of human MERTK assessed as percent of control at 2000 nM by KINOMEscan assay relative to control; parameters: scale not given: the % may be the effect or the level left
Sequence of Tyrosine-protein kinase Mer (Homo sapiens) (Q12866 whole entry): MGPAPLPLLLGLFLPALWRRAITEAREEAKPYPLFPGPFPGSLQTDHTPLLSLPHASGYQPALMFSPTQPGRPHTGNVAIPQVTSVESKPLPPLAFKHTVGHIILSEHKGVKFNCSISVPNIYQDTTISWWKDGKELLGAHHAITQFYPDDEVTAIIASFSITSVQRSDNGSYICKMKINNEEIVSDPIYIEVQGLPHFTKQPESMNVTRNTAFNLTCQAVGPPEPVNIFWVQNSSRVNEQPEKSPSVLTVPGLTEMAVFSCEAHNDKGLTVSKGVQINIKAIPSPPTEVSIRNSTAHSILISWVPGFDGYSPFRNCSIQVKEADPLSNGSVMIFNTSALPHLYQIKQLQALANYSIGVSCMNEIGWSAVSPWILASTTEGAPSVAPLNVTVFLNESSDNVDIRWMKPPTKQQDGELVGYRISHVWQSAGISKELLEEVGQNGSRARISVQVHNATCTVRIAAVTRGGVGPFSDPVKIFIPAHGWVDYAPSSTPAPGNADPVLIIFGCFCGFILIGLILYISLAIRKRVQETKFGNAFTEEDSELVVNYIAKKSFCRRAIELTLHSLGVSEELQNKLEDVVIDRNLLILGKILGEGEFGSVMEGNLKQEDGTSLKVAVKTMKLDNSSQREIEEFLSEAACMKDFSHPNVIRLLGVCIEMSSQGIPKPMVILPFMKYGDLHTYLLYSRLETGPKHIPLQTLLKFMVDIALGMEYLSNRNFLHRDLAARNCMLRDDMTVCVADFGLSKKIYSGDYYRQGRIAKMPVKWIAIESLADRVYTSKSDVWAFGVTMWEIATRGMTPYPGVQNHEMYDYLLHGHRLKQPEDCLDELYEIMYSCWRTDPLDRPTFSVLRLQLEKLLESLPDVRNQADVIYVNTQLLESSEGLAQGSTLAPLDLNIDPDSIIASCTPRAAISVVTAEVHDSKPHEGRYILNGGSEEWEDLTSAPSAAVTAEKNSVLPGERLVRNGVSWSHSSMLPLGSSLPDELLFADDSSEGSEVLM

[20] = target: SNF-related serine/threonine-protein kinase (Homo sapiens) (UniProt Q9NRH2); test: Inhibition of human SNRK assessed as percent of control at 2000 nM by KINOMEscan assay relative to control; parameters: scale not given: the % may be the effect or the level left
[21] = target: Mitogen-activated protein kinase kinase kinase kinase 1 (Homo sapiens) (UniProt Q92918); test: Inhibition of human HPK1 assessed as percent of control at 2000 nM by KINOMEscan assay relative to control; parameters: scale not given: the % may be the effect or the level left
Sequence of Mitogen-activated protein kinase kinase kinase kinase 1 (Homo sapiens) (Q92918 whole entry, looked up): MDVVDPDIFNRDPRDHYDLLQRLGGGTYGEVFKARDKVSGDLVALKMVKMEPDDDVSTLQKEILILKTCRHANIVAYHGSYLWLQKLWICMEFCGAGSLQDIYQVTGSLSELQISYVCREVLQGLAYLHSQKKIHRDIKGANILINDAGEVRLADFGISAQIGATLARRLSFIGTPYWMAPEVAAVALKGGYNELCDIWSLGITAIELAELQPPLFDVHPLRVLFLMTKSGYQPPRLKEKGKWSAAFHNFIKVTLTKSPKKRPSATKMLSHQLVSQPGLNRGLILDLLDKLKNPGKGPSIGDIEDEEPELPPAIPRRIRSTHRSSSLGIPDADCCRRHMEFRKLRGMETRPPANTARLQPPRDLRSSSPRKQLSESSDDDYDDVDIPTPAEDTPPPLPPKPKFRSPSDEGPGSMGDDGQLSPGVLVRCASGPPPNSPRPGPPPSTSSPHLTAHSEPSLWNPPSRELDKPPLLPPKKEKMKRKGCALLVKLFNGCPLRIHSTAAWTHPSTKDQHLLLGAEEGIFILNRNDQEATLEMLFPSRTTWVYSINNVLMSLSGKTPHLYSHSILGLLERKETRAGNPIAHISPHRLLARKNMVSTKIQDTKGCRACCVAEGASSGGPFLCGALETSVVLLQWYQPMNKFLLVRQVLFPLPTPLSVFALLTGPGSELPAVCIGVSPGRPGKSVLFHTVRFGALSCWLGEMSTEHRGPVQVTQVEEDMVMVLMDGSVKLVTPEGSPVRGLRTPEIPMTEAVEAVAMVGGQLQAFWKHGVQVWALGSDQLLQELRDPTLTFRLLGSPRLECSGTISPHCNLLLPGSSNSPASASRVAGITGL

[22] = target: Serine/threonine-protein kinase ULK3 (Homo sapiens) (UniProt Q6PHR2); test: Inhibition of human ULK3 assessed as percent of control at 2000 nM by KINOMEscan assay relative to control; parameters: scale not given: the % may be the effect or the level left
Myc-CaP = test: Antitumor activity against murine castration-resistant Myc-CaP cells xenografted in male FVB mouse assessed as suppression of tumor weight in presence of enzalutamide; assay type: functional
[23] = target: Eukaryotic translation initiation factor 2-alpha kinase 1 (Homo sapiens) (UniProt Q9BQI3); test: Inhibition of human EIF2AK1 assessed as percent of control at 2000 nM by KINOMEscan assay relative to control; parameters: scale not given: the % may be the effect or the level left
[24] = target: Mast/stem cell growth factor receptor Kit (Homo sapiens) (UniProt P10721); test: Inhibition of human autoinhibited KIT assessed as percent of control at 2000 nM by KINOMEscan assay relative to control; parameters: scale not given: the % may be the effect or the level left
[25] = target: Myosin-IIIa (Homo sapiens) (UniProt Q8NEV4); test: Inhibition of human MYO3A assessed as percent of control at 2000 nM by KINOMEscan assay relative to control; parameters: scale not given: the % may be the effect or the level left
Sequence of Myosin-IIIa (Homo sapiens) (Q8NEV4 whole entry): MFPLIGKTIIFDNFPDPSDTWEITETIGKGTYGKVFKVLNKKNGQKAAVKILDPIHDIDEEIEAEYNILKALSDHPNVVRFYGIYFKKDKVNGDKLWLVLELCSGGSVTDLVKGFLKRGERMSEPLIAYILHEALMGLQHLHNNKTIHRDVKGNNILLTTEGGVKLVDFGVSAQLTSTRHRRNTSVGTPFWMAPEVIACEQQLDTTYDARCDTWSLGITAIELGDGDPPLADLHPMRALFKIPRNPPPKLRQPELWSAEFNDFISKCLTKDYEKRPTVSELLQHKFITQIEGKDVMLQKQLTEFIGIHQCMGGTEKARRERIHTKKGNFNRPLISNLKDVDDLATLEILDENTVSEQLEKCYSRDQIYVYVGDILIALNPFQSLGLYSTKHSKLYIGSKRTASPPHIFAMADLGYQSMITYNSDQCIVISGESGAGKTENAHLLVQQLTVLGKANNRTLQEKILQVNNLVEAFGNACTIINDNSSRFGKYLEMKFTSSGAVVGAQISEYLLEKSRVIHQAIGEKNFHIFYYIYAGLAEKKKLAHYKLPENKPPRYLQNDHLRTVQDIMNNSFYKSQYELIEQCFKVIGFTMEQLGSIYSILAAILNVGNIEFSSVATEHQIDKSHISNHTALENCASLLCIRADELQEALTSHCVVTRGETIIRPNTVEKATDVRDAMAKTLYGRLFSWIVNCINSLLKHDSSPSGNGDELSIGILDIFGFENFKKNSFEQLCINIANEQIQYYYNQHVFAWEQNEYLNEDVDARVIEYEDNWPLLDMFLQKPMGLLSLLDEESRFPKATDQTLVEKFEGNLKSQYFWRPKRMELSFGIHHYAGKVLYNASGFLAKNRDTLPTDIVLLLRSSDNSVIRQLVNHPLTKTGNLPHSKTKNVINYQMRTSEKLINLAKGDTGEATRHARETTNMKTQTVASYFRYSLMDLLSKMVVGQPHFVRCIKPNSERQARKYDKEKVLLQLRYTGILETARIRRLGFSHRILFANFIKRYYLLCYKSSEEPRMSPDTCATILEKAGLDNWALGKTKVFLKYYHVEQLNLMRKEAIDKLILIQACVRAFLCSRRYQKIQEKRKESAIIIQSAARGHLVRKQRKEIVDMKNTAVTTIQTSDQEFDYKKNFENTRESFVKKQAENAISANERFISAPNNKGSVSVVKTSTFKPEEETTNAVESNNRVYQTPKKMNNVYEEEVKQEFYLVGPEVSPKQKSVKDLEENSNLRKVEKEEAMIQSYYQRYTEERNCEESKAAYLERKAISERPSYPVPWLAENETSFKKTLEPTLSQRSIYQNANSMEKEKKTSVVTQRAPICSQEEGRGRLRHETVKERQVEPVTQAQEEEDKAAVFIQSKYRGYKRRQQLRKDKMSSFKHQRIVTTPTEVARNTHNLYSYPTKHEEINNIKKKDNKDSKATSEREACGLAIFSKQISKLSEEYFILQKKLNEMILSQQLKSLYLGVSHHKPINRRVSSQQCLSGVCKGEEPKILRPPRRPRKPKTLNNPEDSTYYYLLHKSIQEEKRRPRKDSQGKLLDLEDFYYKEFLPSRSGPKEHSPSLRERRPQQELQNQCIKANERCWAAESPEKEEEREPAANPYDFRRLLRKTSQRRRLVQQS

[26] = target: Tyrosine-protein kinase receptor TYRO3 (Homo sapiens) (UniProt Q06418); test: Inhibition of human TYRO3 assessed as percent of control at 2000 nM by KINOMEscan assay relative to control; parameters: scale not given: the % may be the effect or the level left
[27] = target: Cyclin-dependent kinase 8 (Homo sapiens) (UniProt P49336); settings: INHIBITOR, dose 2000.0 nM
Description: Inhibition of human CDK8 at 2000 nM by KINOMEscan assay

[28] = test system: ALK tyrosine kinase receptor (Homo sapiens), Q9UM73 [L1196M]; test: Inhibition of human ALK L1196M mutant assessed as percent of control at 2000 nM by KINOMEscan assay relative to control; parameters: scale not given: the % may be the effect or the level left
[29] = target: Dual specificity testis-specific protein kinase 1 (Homo sapiens) (UniProt Q15569); test: Inhibition of human TESK1 assessed as percent of control at 2000 nM by KINOMEscan assay relative to control; parameters: scale not given: the % may be the effect or the level left
[30] = test system: Mast/stem cell growth factor receptor Kit (Homo sapiens), P10721 [V559D,T670I]; test: Inhibition of human KIT V559D/T670I double mutant assessed as percent of control at 2000 nM by KINOMEscan assay relative to control; parameters: scale not given: the % may be the effect or the level left

## CN(C)C(=O)c1ccc(N2CCCN(c3ccnc4sc(C(N)=O)c(N)c34)CC2)cc1
[1]
  Activity: 94% and 84%
[2]
  Activity: 100% and 93%
[3]
  Activity: 89% and 97%
[4]
  Activity: 57% and 77%
[5]
  Activity: 86% and 65%
[6]
  Activity: 98% and 81%
[7]
  Activity: 100%
[8]
  Activity: 98% and 100%
[9]
  Activity: 87% and 93%
[10]
  Activity: 92% and 97%
[11]
  Activity: 100%
[12]
  Activity: 94% and 97%
[13]
  Activity: 100% and 90%
[14]
  Activity: 92% and 74%
[15]
  Activity: 100%
[16]
  Activity: 94% and 86%
[17]
  Activity: 99% and 87%
[18]
  Activity: 81% and 77%
[19]
  Activity: 89% and 100%
[20]
  Activity: 100% and 75%
[21]
  Activity: 98% and 100%
[22]
  Activity: 96% and 79%
Myc-CaP
  Activity: Active
[23]
  Activity: 93% and 78%
[24]
  Activity: 90%
[25]
  Activity: 100%
[26]
  Activity: 100%
[27]
  inhibition: > 65%
[28]
  Activity: 96% and 92%
[29]
  Activity: 83% and 100%
[30]
  Activity: 100% and 96%
